From patent US11872291B2, “Fibroblast activation protein (FAP)-targeted imaging and therapy” (priority 2016, dated 2024) come the findings set out here.

For data set [1], the system named is FaDu, HT29, MDA-MB231 or KB tumor bearing mice. Nature of the data set: In vivo fluorescence imaging and biodistribution in tumor xenografts. The conditions noted are these: i.v., 2 h post injection; harvested organs. How it is done:
In Vivo Fluorescence Imaging and Biodistribution. For the development of subcutaneous tumor xenografts, MDA-MB231, OVCAR-3 and HEC-1B 5×10^6 cells in 0.2 ml sterile PBS were injected subcutaneously in the right hind flank of the female nu/nu mice. Tumor imaging was initiated once the tumor volume reached between 200 mm^3 and 300 mm^3. Each tumor-bearing mouse was intravenously injected (via tail vein) with 10 nanomoles of fluorescence dye conjugate either in the presence or absence of a 100-fold excess of the unlabeled conjugate. Animals were euthanized two hours post injection using CO2 and the images were acquired using Caliper IVIS Luminal II. After performing the whole body image, the organs of interest were harvested and imaged to inspect the accumulation of the fluorescence in these organs. The image acquisition parameters were as follows: i) lamp level-high, ii) excitation-745 nm, iii) emission-ICG, iv) binning (M) 4M, (v) f-stop-4, (vi) FOV-12.5, (vii) acquisition time, 5 s.
In Vivo Fluorescence Imaging. To investigate the ability of JFL-L1-S0456 to accumulate in vivo mice were implanted with FaDu (n=5), HT29 (n=5), MDA-MB231(n=5) or KB (n=5) cells. These tumor bearing mice were intravenously injected with the NIR dye conjugate alone or co-injected with excess of the FAP targeting ligand JFL. […]

Data set [2] concerns FaDu, HT29, MDA-MB231 and KB cancer cells. Nature of the data set: Confocal microscopy, uptake of JFL-L1-FM by cancer cells. Type of data set: cell-based. The conditions noted are these: 100 nM, 1 h incubation at 37° C. How it is done:
Confocal Microscopy. FaDu, HT29, MDA-MB231 and KB cancer cells (30,000) were plated on 4 well confocal plate. The cells were incubated with […] JFL-L1-FM and incubated for 1 h. The unbound fluorescence was removed by washing the cells three times with the medium. The cell bound fluorescence was observed by using Olympus confocal microscopy.
In Vitro Binding Affinity and Confocal Imaging. The cancer cells FaDU, HT29, MDA-MB231 and KB were investigated for the expression of FAP. For this purpose, the cancer cells were seeded on a confocal well plate and incubated with 100 nM of the FAP targeted FM conjugate (JFL-L1-FM) After 1 h incubation at 37° C. the cells were washed to remove any excess of the […] under confocal microscopy to investigate any uptake of the dye, as shown in FIG. 11. […] This implied absence of FAP on these cancer cells.

Data set [3] has as its system MDA-MB-231 subcutaneous tumor. Nature of the data set: In vivo FAP targeted CAR T-cell therapy. Details: species or system mice. How it is done:
In vivo FAP targeted CAR T-cell therapy: MDA-MB-231 subcutaneous tumor was developed in female NSG mice by injecting 5 million cancer cells. Once the tumor volume reached ˜100 mms the mice were randomized into three different groups and treatment was initiated. Mice in all the groups were administered with 15 million CAR T-cells which has an scFv domain that binds specifically and tightly with fluorescein. 2 h after administration of the CAR T-cells mice in all the groups were given the first dose of the respective test agents. […] During therapy, mice in different groups were administered with the respective test agents intravenously on every other day. As a measure of gross toxicity mice were also weighed at every dosing.

[4] abbreviates: 10 nmoles i.v. every other day with 15 million anti-fluorescein CAR T-cells.

Consider `C[C@@H](NC(=O)c1ccnc(CNC(=O)CCC(=O)N[C@@H](CSC2CC(=O)N(CCNC(=O)CCc3ccc(OC4=C(/C=C/C5=[N+](CCCCS(=O)(=O)O)c6ccc(S(=O)(=O)[O-])cc6C5(C)C)CCC/C4=C\C=C4\N(CCCCS(=O)(=O)O)c5ccc(S(=O)(=O)O)cc5C4(C)C)cc3)C2=O)C(=O)O)c1)C(=O)N1CC(F)(F)C[C@H]1C#N` (stereo partly drawn) [JFL-L1-S0456], for which the “uptake of the dye conjugate in the liver and kidney” value in data set [1] is given as “minimal or no uptake”.
`C[C@@H](NC(=O)c1ccnc(CNC(=O)CCC(=O)NC(CSC2CC(=O)N(c3ccc(-c4c5ccc(=O)cc-5oc5cc(O)ccc45)c(C(=O)O)c3)C2=O)C(=O)O)c1)C(=O)N1CC(F)(F)C[C@H]1C#N` (stereo partly drawn) [JFL-L1-FM]: the “uptake of dye conjugate observed under confocal microscopy” value in data set [2] is given as “no uptake of dye conjugate was observed”. In data set [3] (setting [4]), the “tumor growth rate after 1 week of treatment” value was “slight separation in the tumor growth rate was observed” and the “tumor volume at the beginning of the study” value is on record as “did not display any reduction in tumor volume”. In addition, the “tumor growth rate, competition group” value in data set [3] (10 nmoles plus 100-fold excess of JFL, with CAR T-cells) is given as “did not show any difference in the tumor growth rate”. For the same molecule, the “weight loss (gross toxicity)” value in data set [3] (all arms of the study) is reported as “No weight loss was observed”.
